Measurements reported in patent US20120020958A1, “FIBCD1 FOR THE PREVENTION AND TREATMENT OF DISEASES” (Dansk Universitet, priority 2008, published 2012).
Where two headings read alike, the source gives them in different places.

Tests used:
[1] = molecular target: T1, FIBCD1 ectodomain (Homo sapiens, UniProt Q8N539); assay: ELISA inhibition of binding between FIBCD1 ectodomain and acetylated BSA; conditions: for IC50: read-out: I50 of the binding between FIBCD1 and acetylated BSA; for inhibition of binding of FIBCD1 to acetylated BSA: at a concentration of 50 mM; for I50 relative (relative inhibitor potential): I50 of the best inhibitor divided by I50 of the compound
T1 construct: The V5-His tagged putative ectodomain of FIBCD1, encoding amino acid 54-461, was generated by PCR; made in house; host or cells: HEK293 (Flp-In T-REx), secreted via pSecTag/FRT/V5-His TOPO vector
T1 sequence (Q8N539 54-461): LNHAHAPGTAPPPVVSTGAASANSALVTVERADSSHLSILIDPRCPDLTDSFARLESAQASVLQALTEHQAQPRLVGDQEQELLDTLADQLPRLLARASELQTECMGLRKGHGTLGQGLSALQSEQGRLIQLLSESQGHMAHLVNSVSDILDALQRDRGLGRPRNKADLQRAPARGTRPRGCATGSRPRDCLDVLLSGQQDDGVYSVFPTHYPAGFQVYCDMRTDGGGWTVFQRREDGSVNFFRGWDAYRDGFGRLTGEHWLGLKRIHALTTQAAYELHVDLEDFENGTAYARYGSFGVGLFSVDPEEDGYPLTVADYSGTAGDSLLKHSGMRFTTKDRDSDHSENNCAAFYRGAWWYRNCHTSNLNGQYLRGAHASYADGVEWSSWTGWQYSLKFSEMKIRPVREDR
Method: The ligand selectivity of FIBCD1 was investigated by inhibiting the binding of FIBCD1 ectodomain to acetylated BSA coated microtiter plates (FIG. 2G, Table 1).
(§1) An ELISA system was used to evaluate the ability of various acetylated and nonacetylated compounds to inhibit the binding between FIBCD1 ectodomain and acetylated BSA (Sigma). Microtiter plates (NUNC Maxisorp, Denmark) were coated with acetylated BSA (Sigma) or BSA (Sigma) and blocked with TBS/Tw before being incubated with FIBCD1 ectodomain samples diluted in TBS/Tw (5 mM CaCl2). The binding between FIBCD1 and acetylated BSA was also tested in the presence of 10 mM EDTA, 5 mM MnCl2 or 5 mM MgCl2 instead of CaCl2. After incubation overnight at 4° C. and washing, the wells were incubated for 2 h at room temperature with chicken anti-FIBCD1 antibodies diluted 1:1000 in TBS/Tw (5 mM CaCl2). The plates were washed with TBS/Tw (5 mM CaCl2) and incubated for 1 h with alcalic phosphatase-labelled anti-chicken IgY (whole molecule) (Sigma-Aldrich) diluted 1:1500 in TBS/Tw (5 mM CaCl2) followed by washing and developed with 1 mg/ml para-nitrophenylphosphate, disodium salt (PNPP) (Boehringer Mannheim, Germany) in substrate buffer.
The mixtures were incubated overnight in the acetylated BSA coated wells overnight at 4° C. and processed as described above.

[2] = test system: CHO cells transfected with FIBCD1 cDNA; assay: FIBCD1-mediated endocytosis of acetylated BSA in CHO cells; assay type: cell-based, Chinese hamster; conditions: for uptake and degradation of 125I labelled acetylated BSA: GlcNAc at 10 mM
Method: Degradation was measured, as the cell-mediated increase in of TCA-soluble radioactivity in the growth medium and cell-associated was determined by counting the radioactivity of the cell lysate. (A) CHO cells and (B) CHO/FIBCD1 cells. (C) Effect of lysosomal inhibitors chloroquine and leupeptin (both 100 μM) on endocytosis of NAc-BSA. Values are mean+/−1 SD of triplicate samples. […] Fluorescence microscopy of CHO-FReD (E) and CHO (F) after incubation with Alexa488 acetylated BSA.

[3] = molecular target: T2, FIBCD1 (Homo sapiens, UniProt Q8N539); assay: ELISA binding of FIBCD1 to coated microtiter plates; conditions: for substitution for calcium in binding to acetylated BSA: 5 mM MnCl2 or 5 mM MgCl2 instead of CaCl2; for binding of FIBCD1 to coated substance: ELISA, microtiter plates coated with the substance
T2 construct: The V5-His tagged putative ectodomain of FIBCD1, encoding amino acid 54-461, was generated by PCR; made in house; host or cells: HEK293 (Flp-In T-REx), secreted via pSecTag/FRT/V5-His TOPO vector
T2 sequence (Q8N539 54-461): T1 sequence (Q8N539 54-461)
Method: (A) SDS-PAGE and Western blotting analysis of culture supernatant from HEK293 cells expression FIBCD1 in the non-reduced (lane 1) and reduced (lane 2) state developed with the monoclonal rat anti-FIBCD1 (HG-HYB-12-2). […] (D) Silver stained SDS-PAGE of fractions from (E) in the reduced and unreduced state. (E) Microtiterplates were coated with BSA or NAc-BSA and increasing amounts of FIBCD1 was added in the presence 5 mM CaCl2 or 10 mM EDTA. (F) Microtiterplates were coated with NAc-BSA and 100 ng/ml and FIBCD1 was added in the presence 0-1 mM CaCl2. (G) Microtiterplates were coated with NAc-BSA and increasing amounts of FIBCD1 was added in the presence 5 mM CaCl2, 5 mM MgCl2 or 5 mM MnCl2.
(A) Microtiter plates were coated with LPS 055, LPS 0111 LPS 026 or NAc-BSA. (B) Microtiterplates were coated with LTA, mannan, peptidoglycan or NAc-BSA and increasing concentrations of FIBCD1 was added. (C) Pull-down assays where 20 μg of the FIBCD1 (the FReD of FIBCD1) or as a positive control 20 μg of wheat germ agglutinin (WGA) was added to 2 mg insoluble chitin, cellulose, zymozane or beta-glucan. […] BSA was used as control. Pellet fractions were analyzed by SDS-PAGE and Coomassie blue staining.
as §1

[4] = molecular target: T3, FIBCD1 (the FReD of FIBCD1) (Homo sapiens, UniProt Q8N539); assay: Pull-down assay of FIBCD1 (FReD) with insoluble polysaccharides; assay type: binding; conditions: 20 μg FIBCD1 FReD, 2 mg insoluble substance
T3 construct: 20 μg of the FIBCD1 (the FReD of FIBCD1)
T3 sequence (Q8N539 235-458 limits assumed): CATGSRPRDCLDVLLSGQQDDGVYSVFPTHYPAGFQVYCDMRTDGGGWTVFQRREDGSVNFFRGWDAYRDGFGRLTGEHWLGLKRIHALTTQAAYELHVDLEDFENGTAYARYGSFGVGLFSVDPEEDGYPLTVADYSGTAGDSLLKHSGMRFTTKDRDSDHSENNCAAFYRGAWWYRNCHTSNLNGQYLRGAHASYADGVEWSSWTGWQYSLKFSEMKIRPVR
Method: (B) Microtiterplates were coated with LTA, mannan, peptidoglycan or NAc-BSA and increasing concentrations of FIBCD1 was added. (C) Pull-down assays where 20 μg of the FIBCD1 (the FReD of FIBCD1) or as a positive control 20 μg of wheat germ agglutinin (WGA) was added to 2 mg insoluble chitin, cellulose, zymozane or beta-glucan. […] BSA was used as control. Pellet fractions were analyzed by SDS-PAGE and Coomassie blue staining.

[5] = 100 ng/ml FIBCD1 ectodomain, 5 mM CaCl2, N.I. = less than 50% inhibition at 50 mM

`CC(=O)OCC[N+](C)(C)C` [Acetylcholine, acetyl cholin] gave an IC50 [1] of 10 mM.
For `C[C@H](N)C(=O)O` [Alanine, L-alanine, reference compound], the “I50 of the binding between FIBCD1 and acetylated BSA” value [1, 5] was “N.I”.
For `CCCC(=O)[O-].[Na+]` [Butyrate, sodium butyrate, reference compound], the “I50 of the binding between FIBCD1 and acetylated BSA” value [1, 5] was “N.I” and the “inhibition of binding of FIBCD1 to acetylated BSA” value [1] was “did not inhibit”.
In the case of `O=C[C@H](O)[C@@H](O)[C@@H](O)[C@H](O)CO` [Galactose, galactose, reference compound], the “I50 of the binding between FIBCD1 and acetylated BSA” value [1, 5] is reported as “N.I”.
With `N[C@H]1C(O)O[C@H](CO)[C@H](O)[C@@H]1O` (some centres unmarked) [Galactoseamin, galactosamine, reference compound] the “I50 of the binding between FIBCD1 and acetylated BSA” value [1, 5] was “N.I”.
In the case of `N[C@H]1C(O)O[C@H](CO)[C@@H](O)[C@@H]1O` (some centres unmarked) [Glucosamine, glucosamine, reference compound], the “I50 of the binding between FIBCD1 and acetylated BSA” value [1, 5] is reported as “N.I”.
`N[C@@H]1C(O)O[C@H](CO)[C@@H](O)[C@@H]1O` (some centres unmarked) [Mannosamine, mannosamine, reference compound] was tested, and the “I50 of the binding between FIBCD1 and acetylated BSA” value [1, 5] was “N.I”.
In the case of `CC(=O)N[C@@H](C)C(=O)O` [N-acetylalanine], the “I50 relative (relative inhibitor potential)” value [1] is reported as 0.5 and the IC50 [1] is reported as 4 mM.
`CC(=O)N[C@@H]1[C@@H](O)[C@@H](O)[C@@H](CO)O[C@@H]1O` [N-acetylgalactoseamine] was tested, and the IC50 [1, 5] was 5 mM and the “I50 relative (relative inhibitor potential)” value [1] was 0.4.
`CC(=O)N[C@H]1C(O)O[C@H](CO)[C@@H](O)[C@@H]1O` (some centres unmarked) [N-acetylglucosamine, N-acetyl glucosamine] was tested, and the “I50 relative (relative inhibitor potential)” value [1] was 0.5, the IC50 [1] was 4 mM and the “uptake and degradation of 125I labelled acetylated BSA” value ([2]; CHO/FIBCD1 cells) was “inhibited”.
`CC(=O)N[C@@H]1C(O)O[C@H](CO)[C@@H](O)[C@@H]1O` (some centres unmarked) [N-acetylmannoseamine, N-acetyl mannosamine] was tested, and the “I50 relative (relative inhibitor potential)” value [1] was 1 and the IC50 [1] was 2 mM.
For `CCC(=O)[O-].[Na+]` [Propionate, sodium propionate, reference compound], the “I50 of the binding between FIBCD1 and acetylated BSA” value [1, 5] was “N.I” and the “inhibition of binding of FIBCD1 to acetylated BSA” value [1] was “did not inhibit”.
In the case of `CC(=O)N[C@H]1[C@H]([C@H](O)[C@H](O)CO)OC(O)(C(=O)O)C[C@@H]1O` (some centres unmarked) [Sialic acid, N-acetylneuraminic acid], the “I50 relative (relative inhibitor potential)” value [1] is reported as 1 and the IC50 [1] is reported as 2 mM.
With `[Ca+2].[Cl-].[Cl-]` [calcium, calcium chloride] the “calcium concentration for optimum binding to acetylated BSA” value ([3]; 100 ng/ml FIBCD1, 0-1 mM CaCl2) was 0.6 mM.
In the case of `[Mg]` [magnesium], the “substitution for calcium in binding to acetylated BSA” value [3] is reported as “could not”.
In the case of `[Mn+2]` [manganese], the “substitution for calcium in binding to acetylated BSA” value [3] is reported as “could substitute for calcium”.
For “Alexa488 labelled acetylated BSA: acetylated BSA coupled with Alexa Fluor 488 C5 maleimide”, the “uptake in CHO cells transfected with FIBCD1 cDNA” value ([2]; fluorescence microscopy) was “mediate uptake” and the “uptake in non-transfected CHO cells” value [2] was “no uptake”.
With N-acetyl bovine serum albumin [NAc-BSA] the “binding of FIBCD1 to coated substance” value [3] was “binding”, the “binding of FIBCD1 to coated substance” value ([3]; listed as acetylated BSA) was “bound” and the “uptake and degradation of 125I labelled acetylated BSA” value ([2]; CHO/FIBCD1 cells) was “inhibited”.
With “^125I-labeled NAc-BSA: acetylated BSA labelled with 125I using the chloroamine-T method” the “time at which cell-associated radioactivity reached a plateau” value ([2]; CHO/FIBCD1 cells, 37° C.) was “one” and the “uptake in non-transfected CHO cells” value [2] was “no uptake”.
In the case of cellulose, the “binding of FIBCD1 in pull-down” value [4] is reported as “no binding”.
For lipopolysaccharide [LPS], the “binding of FIBCD1 to coated substance” value [3] was “no binding”.
With lipoteichoid acid [LTA] the “binding of FIBCD1 to coated substance” value [3] was “no binding”.
With mannan the “binding of FIBCD1 to coated substance” value [3] was “no binding”.
For peptidoglycan, the “binding of FIBCD1 to coated substance” value [3] was “no binding”.
With zymosan the “binding of FIBCD1 in pull-down” value [4] was “no binding”.
In the case of β-1,3-glucan, the “binding of FIBCD1 in pull-down” value [4] is reported as “no binding”.
